Assays:
[1] = tested on: patient treated with the membrane lung NovaLung iLA; experiment: application of the membrane lung NovaLung iLA on a patient receiving ASA; scanning electron microscope image of the gas exchange membrane; assay type: in vivo, human
Method: A patient who required treatment with the NovaLung iLA was administered 50 mg of ASA daily for 1 week before application of the membrane lung. This administration of 50 mg of ASA daily was initially maintained during application of the membrane lung, but the medicament was discontinued one week before removal of the membrane lung. […] FIG. 1 is a scanning electron microscope image of the gas exchange membrane from the membrane lung which was removed and dismantled after a period of use of 14 days on the patient thus treated and medicated.

platelet aggregation = platelet aggregation in the patient receiving ASA with NovaLung iLA treatment, standard clinical methods; assay type: in vivo, human
Method: The membrane lung NovaLung iLA itself was used in the manner described by Fischer el al., loc cit. The platelet aggregation was determined using standard clinical methods.

## CC(=O)Oc1ccccc1C(=O)O [ASA, acetylsalicylic acid]
[1]; 50 mg ASA daily oral, membrane lung removed after period of use of 14 days on the patient
  deposition of blood constituents on the gas exchange membrane (scanning electron microscope image, FIG. 1): no deposition of blood constituents
[1]; 50 mg ASA daily, membrane lung left on the patient for 2 weeks
  gas exchange performance and flow resistance of the membrane lung to the blood stream: without an appreciable reduction in gas exchange performance or an appreciable increase in the flow resistance
Platelet aggregation; 50 mg ASA daily, during the second week of ASA administration
  platelet aggregation (FIG. 3): remained at its reduced value
Platelet aggregation; 50 mg ASA daily, within the first week of ASA administration, when the membrane lung was connected
  platelet aggregation (FIG. 3): below 20%
Platelet aggregation; two weeks after start of treatment with the membrane lung, 1 week after discontinuation of ASA
  platelet aggregation (FIG. 3): below 30%

From patent publication US20070254856A1, “Use of acetylsalicylic acid (ASA) in the application of a membrane lung” (priority 2006, published 2007)
